For the test, the target named is T1, human mAChR M1 (Homo sapiens, UniProt P11229).
T1 sequence (P11229 1-460): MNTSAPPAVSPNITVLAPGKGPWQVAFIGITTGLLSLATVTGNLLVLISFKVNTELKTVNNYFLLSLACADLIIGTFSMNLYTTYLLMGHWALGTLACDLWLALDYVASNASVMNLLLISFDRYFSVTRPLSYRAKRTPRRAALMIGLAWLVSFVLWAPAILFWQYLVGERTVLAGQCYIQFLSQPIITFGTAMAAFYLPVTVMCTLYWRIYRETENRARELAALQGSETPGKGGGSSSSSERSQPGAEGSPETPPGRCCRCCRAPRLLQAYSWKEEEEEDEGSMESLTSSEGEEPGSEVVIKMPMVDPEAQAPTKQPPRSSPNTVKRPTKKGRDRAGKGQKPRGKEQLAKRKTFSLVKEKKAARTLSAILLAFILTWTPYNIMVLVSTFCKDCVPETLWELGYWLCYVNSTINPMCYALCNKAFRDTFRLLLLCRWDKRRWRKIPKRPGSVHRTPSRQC
The experiment in a line: mAChR M1 cell-based functional assay: calcium mobilization, positive allosteric modulator mode (increase in EC20 acetylcholine response). Particulars: for Emax: read-out: Human M1 Emax (%). In a few lines:
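Calcium-flux assay in CHO-K1 cells stably expressing human M1, loaded with Fluo-4 AM (50 min, 37 °C) and read at 1 Hz. Compound (11-point, 1:3 series) was added at 4 s, EC20 acetylcholine at 144 s and EC80 at 230 s. PAM activity is the concentration-dependent rise in the EC20 response, fitted with a four-parameter logistic.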
For orientation: Calcium flux is commonly read through the fluorescence of an indicator in the cells.

Setting [1] is: Table 2, human M1, read-out: Human M1 EC50.

Like-named read-outs stand apart in the source and are kept apart here. Bounds are passed on as bounds.

For the molecule `Cn1ccc(-c2ccc(Cc3cc(C(=O)N[C@@H]4CC[C@H]4O)nc4ccsc34)cc2)n1` [Compound 251, N-[(1R,2R)-2-hydroxycyclobutyl]-7-[[4-(1-methylpyrazol-3-yl)phenyl]methyl]thieno[3,2-b]pyridine-5-carboxamide], under setting [1], the EC50 came out at 234 nM. Further, the Emax (Table 2, human M1) was 70.3%. As to `Cc1nn(C)cc1-c1ccc(Cc2cc(C(=O)N[C@H]3COCC[C@@H]3O)nc3ccsc23)cc1` [Compound 249, 7-[[4-(1,3-dimethylpyrazol-4-yl)phenyl]methyl]-N-[(3S,4S)-4-hydroxytetrahydropyran-3-yl]thieno[3,2-b]pyridine-5-carboxamide], under setting [1], the EC50 is greater than 10000 nM. The Emax (Table 2, human M1) is 42.1%. For `Cc1ncc(Cc2cc(C(=O)NC3CCOCC3)nc3ccsc23)s1` [Compound 135, 7-[(2-methylthiazol-5-yl)methyl]-N-tetrahydropyran-4-yl-thieno[3,2-b]pyridine-5-carboxamide], the EC50 under setting [1] is greater than 10000 nM. In addition, the Emax (Table 2, human M1) came out at 60.9%. In the same order, the values of `CC1(O)CCN(C(=O)c2cc(Cc3ccc(-n4cccn4)cc3)c3sccc3n2)CC1` [Compound 82, (4-hydroxy-4-methyl-1-piperidyl)-[7-[(4-pyrazol-1-ylphenyl)methyl]thieno[3,2-b]pyridin-5-yl]methanone] are greater than 10000 nM and 70.4%.

With `O=C(NC1CCOC1)c1cc(Cc2ccc(-n3cccn3)cc2)c2sccc2n1` (stereo not shown) [Compound 440, 7-[(4-pyrazol-1-ylphenyl)methyl]-N-tetrahydrofuran-3-yl-thieno[3,2-b]pyridine-5-carboxamide], the half-maximal effective concentration (EC50) under setting [1] stood at 1970 nM. In addition, the maximal effect (Emax) (Table 2, human M1) was determined as 69.3%. As for `Cn1cc(-c2ccc(Cc3cc(C(=O)N[C@H]4CCOC[C@@H]4O)nc4ccn(C)c34)cn2)cn1` [Compound 468, N-[(3R,4S)-3-hydroxytetrahydropyran-4-yl]-1-methyl-7-[[6-(1-methylpyrazol-4-yl)-3-pyridyl]methyl]pyrrolo[3,2-b]pyridine-5-carboxamide], the half-maximal effective concentration (EC50) under setting [1] was found to be 11.8 nM. For the same molecule, the Emax (Table 2, human M1) was 70%. Take `Cc1nc(-c2ccc(Cc3cc(C(=O)N(C)C4CCOCC4)nc4ccsc34)cc2)cs1` [Compound 190]: the EC50 under setting [1] was 6140 nM. In addition, under “Table 2, human M1”, the Emax stood at 75.5%. In the same order, the values of `Cc1ccc(Cc2cc(C(=O)NC3(C#N)CC3)nc3ccsc23)cn1` [Compound 257, N-(1-cyanocyclopropyl)-7-[(6-methyl-3-pyridyl)methyl]thieno[3,2-b]pyridine-5-carboxamide] are greater than 10000 nM and 26.4%. In the same order, the values of `O=C(N[C@@H]1COCC[C@H]1O)c1cc(Cc2ccc(-n3cccn3)cc2)c2sccc2n1` [Compound 75, N-[(3R,4R)-4-hydroxytetrahydropyran-3-yl]-7-[(4-pyrazol-1-ylphenyl)methyl]thieno[3,2-b]pyridine-5-carboxamide] are 22.1 nM and 90.1%.

Consider `O=C(NC1CCOCC1)c1cc(Cc2ccc(-c3nccs3)cc2)c2sccc2n1` [Compound 296], for which, under setting [1], the EC50 came out at 273 nM. Moreover, the Emax (Table 2, human M1) is 79.9%. As to `Cn1cc(-c2ccc(Cc3cc(C(=O)NC4CC5(COC5)C4)nc4ccsc34)cc2)nn1` [Compound 175, 7-[[4-(1-methyltriazol-4-yl)phenyl]methyl]-N-(2-oxaspiro[3.3]heptan-6-yl)thieno[3,2-b]pyridine-5-carboxamide], under setting [1], the EC50 turned out to be 17.7 nM. The Emax (Table 2, human M1) was found to be 84.3%. In the same order, the values of `O=C(NC[C@@H]1CCCO1)c1cc(Cc2ccc(-c3nccs3)cc2)c2sccc2n1` [Compound 389, N-[[(2S)-tetrahydrofuran-2-yl]methyl]-7-[(4-thiazol-2-ylphenyl)methyl]thieno[3,2-b]pyridine-5-carboxamide] are 345 nM and 64.9%.

As for `Cc1ncc(Cc2cc(C(=O)N[C@@H]3CCCCC[C@H]3O)nc3ccsc23)cn1` [Compound 131, N-[(1R,2R)-2-hydroxycycloheptyl]-7-[(2-methylpyrimidin-5-yl)methyl]thieno[3,2-b]pyridine-5-carboxamide], the EC50 under setting [1] is 4650 nM. In addition, the Emax (Table 2, human M1) stood at 83.4%. For the molecule `Cn1ccc(-c2ccc(Cc3cc(C(=O)N[C@H]4CCCOC4)nc4ccsc34)cn2)n1` [Compound 422, 7-[[6-(1-methylpyrazol-3-yl)-3-pyridyl]methyl]-N-[(3S)-tetrahydropyran-3-yl]thieno[3,2-b]pyridine-5-carboxamide], the EC50 under setting [1] was determined as 1620 nM. Besides, the Emax (Table 2, human M1) amounted to 71.6%. In the case of `Cn1cc(-c2ccc(Oc3cc(C(=O)NC4CC[C@H]4O)nc4ccsc34)c(F)c2)cn1` (stereo partly drawn) [Compound 5, 7-[2-fluoro-4-(1-methylpyrazol-4-yl)phenoxy]-N-[(2R)-2-hydroxycyclobutyl]thieno[3,2-b]pyridine-5-carboxamide], the EC50 (Table 1, mAChR M1 cell-based functional assay, PAM mode, species not given, read-out: EC50) is greater than 10000 nM. `Cc1nc(-c2ccc(Cc3cc(C(=O)NC4CCCNC4=O)nc4ccsc34)cc2)co1` (stereo not shown) [Compound 171, 7-[[4-(2-methyloxazol-4-yl)phenyl]methyl]-N-(2-oxo-3-piperidyl)thieno[3,2-b]pyridine-5-carboxamide]: under setting [1], the EC50 came out at 373 nM. The Emax (Table 2, human M1) is 93%. In the same order, the values of `Cn1cc(-c2ccc(Cc3cc(C(=O)N[C@H]4CCOC[C@@H]4O)nc4ccsc34)cn2)cn1` [Compound 225, N-[(3R,4S)-3-hydroxytetrahydropyran-4-yl]-7-[[6-(1-methylpyrazol-4-yl)-3-pyridyl]methyl]thieno[3,2-b]pyridine-5-carboxamide] are 7.31 nM and 63.6%.

With `O=C(NC1CC2(COC2)C1)c1cc(Cc2ccc(-c3cscn3)cc2)c2sccc2n1` [Compound 231, N-(2-oxaspiro[3.3]heptan-6-yl)-7-[(4-thiazol-4-ylphenyl)methyl]thieno[3,2-b]pyridine-5-carboxamide], under setting [1], the EC50 is 68.7 nM. For the same molecule, the Emax (Table 2, human M1) turned out to be 88.5%.

For the molecule `Cc1nc(-c2ccc(Cc3cc(C(=O)N[C@@H]4CCOC4)nc4ccsc34)cc2)co1` [Compound 160, 7-[[4-(2-methyloxazol-4-yl)phenyl]methyl]-N-[(3R)-tetrahydrofuran-3-yl]thieno[3,2-b]pyridine-5-carboxamide], under setting [1], the EC50 stood at 3930 nM. Under “Table 2, human M1”, the Emax was determined as 77.5%. Take `Cn1ccc2nc(C(=O)N[C@H]3CCCOC3)cc(Cc3ccc(-c4cscn4)cc3)c21` [Compound 462, 1-methyl-N-[(3S)-tetrahydropyran-3-yl]-7-[(4-thiazol-4-ylphenyl)methyl]pyrrolo[3,2-b]pyridine-5-carboxamide]: under setting [1], the EC50 was found to be 2050 nM. Further, the Emax (Table 2, human M1) turned out to be 67.9%.

In the case of `Cc1csc2c(Cc3ccc(-c4ccn(C)n4)cc3)cc(C(=O)N[C@H]3CCC[C@@H]3O)nc12` [Compound 303, N-[(1S,2S)-2-hydroxycyclopentyl]-3-methyl-7-[[4-(1-methylpyrazol-3-yl)phenyl]methyl]thieno[3,2-b]pyridine-5-carboxamide], the EC50 under setting [1] was found to be 366 nM. For the same molecule, the Emax (Table 2, human M1) is 70.7%. In the same order, the values of `Cc1csc2c(Cc3ccc(-c4ccn(C)n4)cc3)cc(C(=O)N[C@H]3CCCC[C@@H]3O)nc12` [Compound 312, N-[(1S,2S)-2-hydroxycyclohexyl]-3-methyl-7-[[4-(1-methylpyrazol-3-yl)phenyl]methyl]thieno[3,2-b]pyridine-5-carboxamide] are 109 nM and 65.5%. In the same order, the values of `Cc1nc(-c2ccc(Cc3cc(C(=O)NC4CCOCC4)nc4ccsc34)cc2)cs1` [Compound 191, 7-[[4-(2-methylthiazol-4-yl)phenyl]methyl]-N-tetrahydropyran-4-yl-thieno[3,2-b]pyridine-5-carboxamide] are 247 nM and 86.9%. `Cc1nc(-c2ccc(Cc3cc(C(=O)NC4CCOCC4)nc4c(C)csc34)cc2)co1` [Compound 329, 3-methyl-7-[[4-(2-methyloxazol-4-yl)phenyl]methyl]-N-tetrahydropyran-4-yl-thieno[3,2-b]pyridine-5-carboxamide]: the EC50 under setting [1] is 458 nM. Further, the Emax (Table 2, human M1) was 73.5%.

In the case of `CC(NC(=O)c1cc(Cc2ccc(-n3cccn3)cc2)c2sccc2n1)C1CCCO1` (stereo not shown) [Compound 446, 7-[(4-pyrazol-1-ylphenyl)methyl]-N-(1-tetrahydrofuran-2-ylethyl)thieno[3,2-b]pyridine-5-carboxamide], under setting [1], the EC50 was 922 nM. The Emax (Table 2, human M1) stood at 72.8%. In the same order, the values of `O=C(NCC1CCO1)c1cc(Cc2ccc(-n3cccn3)cc2)c2sccc2n1` (stereo not shown) [Compound 284, N-(oxetan-2-ylmethyl)-7-[(4-pyrazol-1-ylphenyl)methyl]thieno[3,2-b]pyridine-5-carboxamide] are 67.7 nM and 66.9%.

Consider `O=C(c1cc(Cc2ccc(-n3cccn3)cc2)c2sccc2n1)N1CCN(CCO)CC1` [Compound 84, [4-(2-hydroxyethyl)piperazin-1-yl]-[7-[(4-pyrazol-1-ylphenyl)methyl]thieno[3,2-b]pyridin-5-yl]methanone], for which the EC50 under setting [1] was greater than 10000 nM. For the same molecule, where the note is “Table 2, human M1”, the Emax is 24.4%. In the same order, the values of `CC1(NC(=O)c2cc(Cc3ccc(-n4cccn4)cc3)c3sccc3n2)CCCNC1` (stereo not shown) [Compound 291, N-(3-methyl-3-piperidyl)-7-[(4-pyrazol-1-ylphenyl)methyl]thieno[3,2-b]pyridine-5-carboxamide] are 1120 nM and 64.3%.

One may read the EC50 as the concentration that produces a half-maximal response. As a reminder, the Emax is the maximal effect, on the per cent scale that the assay sets.
